Laboratory results as given in the NIST ThermoML archive (doi:10.1016/j.fluid.2006.01.028).

Legend:
[1] = for surface tension liquid-gas: Drop volume; for mass density: Liquid
[2] = xn = mol fraction of the nth substance listed; conditions: for surface tension liquid-gas: Drop volume; for mass density: 101 kPa, Liquid

CCCCCCCCC [nonane]
[1]
Conditions | mass density [kg/m3] | surface tension liquid-gas [mN/m]
288.15 K | 721.78 | 23.38
298.15 K | 714.02 | 22.37
308.15 K | 706.21 | 21.25

CCCCCCO [hexan-1-ol]
[1]
Conditions | mass density [kg/m3] | surface tension liquid-gas [mN/m]
288.15 K | 822.28 | 26.08
298.15 K | 815.23 | 25.19
308.15 K | 808 | 24.19

CCCCCCCCC [nonane] + CCCCCCO
[2]
Conditions | mass density [kg/m3] | surface tension liquid-gas [mN/m]
288.15 K, x1 = 0.05 | – | 25.77
288.15 K, x1 = 0.0509 | 815.13 | –
288.15 K, x1 = 0.1003 | 808.46 | –
288.15 K, x1 = 0.1082 | – | 25.47
288.15 K, x1 = 0.2028 | 795.35 | –
288.15 K, x1 = 0.2075 | – | 25.06
288.15 K, x1 = 0.307 | 783.01 | –
288.15 K, x1 = 0.3079 | – | 24.62
288.15 K, x1 = 0.4026 | 772.51 | –
288.15 K, x1 = 0.4075 | – | 24.31
288.15 K, x1 = 0.5066 | – | 24.01
288.15 K, x1 = 0.5086 | 761.75 | –
288.15 K, x1 = 0.6016 | 753.02 | –
288.15 K, x1 = 0.6024 | – | 23.81
288.15 K, x1 = 0.7079 | – | 23.68
288.15 K, x1 = 0.708 | 743.74 | –
288.15 K, x1 = 0.808 | 735.7 | –
288.15 K, x1 = 0.8081 | – | 23.57
288.15 K, x1 = 0.9016 | 728.72 | –
288.15 K, x1 = 0.9036 | – | 23.48
288.15 K, x1 = 0.9506 | 725.26 | –
288.15 K, x1 = 0.9554 | – | 23.44
298.15 K, x1 = 0.0504 | – | 24.84
298.15 K, x1 = 0.0509 | 807.93 | –
298.15 K, x1 = 0.1003 | 801.18 | –
298.15 K, x1 = 0.1004 | – | 24.54
298.15 K, x1 = 0.2028 | 787.95 | –
298.15 K, x1 = 0.2042 | – | 24.12
298.15 K, x1 = 0.2998 | – | 23.69
298.15 K, x1 = 0.307 | 775.48 | –
298.15 K, x1 = 0.388 | – | 23.41
298.15 K, x1 = 0.4026 | 764.9 | –
298.15 K, x1 = 0.5011 | – | 23.07
298.15 K, x1 = 0.5086 | 754.06 | –
298.15 K, x1 = 0.6016 | 745.28 | –
298.15 K, x1 = 0.606 | – | 22.84
298.15 K, x1 = 0.708 | 735.96 | –
298.15 K, x1 = 0.7086 | – | 22.66
298.15 K, x1 = 0.808 | 727.88 | –
298.15 K, x1 = 0.8085 | – | 22.56
298.15 K, x1 = 0.9007 | – | 22.48
298.15 K, x1 = 0.9016 | 720.88 | –
298.15 K, x1 = 0.9506 | 717.44 | –
298.15 K, x1 = 0.9508 | – | 22.39
308.15 K, x1 = 0.0509 | 800.64 | –
308.15 K, x1 = 0.0511 | – | 23.81
308.15 K, x1 = 0.1003 | 793.82 | –
308.15 K, x1 = 0.1013 | – | 23.52
308.15 K, x1 = 0.2028 | 780.43 | –
308.15 K, x1 = 0.2059 | – | 23.08
308.15 K, x1 = 0.3066 | – | 22.59
308.15 K, x1 = 0.307 | 767.86 | –
308.15 K, x1 = 0.4026 | 757.19 | –
308.15 K, x1 = 0.404 | – | 22.27
308.15 K, x1 = 0.5065 | – | 21.98
308.15 K, x1 = 0.5086 | 746.28 | –
308.15 K, x1 = 0.6016 | 737.44 | –
308.15 K, x1 = 0.6028 | – | 21.77
308.15 K, x1 = 0.708 | 728.09 | –
308.15 K, x1 = 0.7135 | – | 21.59
308.15 K, x1 = 0.8059 | – | 21.47
308.15 K, x1 = 0.808 | 719.98 | –
308.15 K, x1 = 0.9016 | 712.97 | –
308.15 K, x1 = 0.9043 | – | 21.34
308.15 K, x1 = 0.9506 | 709.52 | –
308.15 K, x1 = 0.9519 | – | 21.27
